Results reported in PubChem BioAssay (NCI).
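96-well plates; 48 h exposure; 5 concentrations. Endpoints by linear interpolation between flanking doses. Not reached: highest tested concentration assigned. GI50 = concentration required for 50% inhibition of growth. At the TGI there is no net growth.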

What was measured:
Assay in all cases: NCI anticancer screen, dose series, 48 h
PC-3 prostate = test system: PC-3 prostate
NCI-H226 lung = test system: NCI-H226 lung
786-0 renal = test system: 786-0 renal
ACHN renal = test system: ACHN renal
SK-MEL-5 melanoma = test system: SK-MEL-5 melanoma
MOLT-4 leukemia = test system: MOLT-4 leukemia
M14 melanoma = test system: M14 melanoma
HCC-2998 colon = test system: HCC-2998 colon
NCI-H23 lung = test system: NCI-H23 lung
UO-31 renal = test system: UO-31 renal
SF-268 CNS = test system: SF-268 CNS
HL-60(TB) leukemia = test system: HL-60(TB) leukemia
NCI/ADR-RES ovarian = test system: NCI/ADR-RES ovarian
NCI-H522 lung = test system: NCI-H522 lung
SK-MEL-2 melanoma = test system: SK-MEL-2 melanoma
K-562 leukemia = test system: K-562 leukemia
MDA-MB-435 = test system: MDA-MB-435
SW-620 colon = test system: SW-620 colon
CCRF-CEM leukemia = test system: CCRF-CEM leukemia
TK-10 renal = test system: TK-10 renal
SF-539 CNS = test system: SF-539 CNS
MCF7 breast = test system: MCF7 breast
CAKI-1 renal = test system: CAKI-1 renal
SR leukemia = test system: SR leukemia
EKVX NSCLC = test system: EKVX NSCLC
UACC-257 melanoma = test system: UACC-257 melanoma
HCT-15 colon = test system: HCT-15 colon
SF-295 CNS = test system: SF-295 CNS
RPMI-8226 leukemia = test system: RPMI-8226 leukemia
A549 NSCLC = test system: A549 NSCLC
OVCAR-3 ovarian = test system: OVCAR-3 ovarian
UACC-62 melanoma = test system: UACC-62 melanoma
IGROV1 ovarian = test system: IGROV1 ovarian
OVCAR-5 ovarian = test system: OVCAR-5 ovarian
OVCAR-8 ovarian = test system: OVCAR-8 ovarian
NCI-H460 lung = test system: NCI-H460 lung
HS 578T breast = test system: HS 578T breast
MDA-MB-231 breast = test system: MDA-MB-231 breast
BT-549 breast = test system: BT-549 breast
DU-145 prostate = test system: DU-145 prostate
HOP-92 NSCLC = test system: HOP-92 NSCLC
SN12C renal = test system: SN12C renal
KM12 colon = test system: KM12 colon

CCOP(=O)(OCC)C(NC(c1ccccc1)c1ccccc1)c1cccc2ccccc12 (stereo unspecified)
GI50 (PC-3 prostate): 3.37 µM
TGI (PC-3 prostate): 13.9 µM
GI50 (NCI-H226 lung): 4.63 µM
TGI (NCI-H226 lung): 19 µM
GI50 (786-0 renal): 2.9 µM
TGI (786-0 renal): 9.64 µM
GI50 (ACHN renal): 4.1 µM
TGI (ACHN renal): 12.3 µM
GI50 (SK-MEL-5 melanoma): 14.9 µM
TGI (SK-MEL-5 melanoma): 32.2 µM
GI50 (MOLT-4 leukemia): 4.17 µM
TGI (MOLT-4 leukemia): > 100 µM
GI50 (M14 melanoma): 3.03 µM
TGI (M14 melanoma): 7.71 µM
GI50 (HCC-2998 colon): 4.55 µM
TGI (HCC-2998 colon): 17.2 µM
GI50 (NCI-H23 lung): 13.3 µM
TGI (NCI-H23 lung): 29.5 µM
GI50 (UO-31 renal): 12.3 µM
TGI (UO-31 renal): > 100 µM
GI50 (SF-268 CNS): 5.75 µM
TGI (SF-268 CNS): 21.2 µM
GI50 (HL-60(TB) leukemia): 14.1 µM
TGI (HL-60(TB) leukemia): > 100 µM
GI50 (NCI/ADR-RES ovarian): 9.79 µM
TGI (NCI/ADR-RES ovarian): 22.6 µM
GI50 (NCI-H522 lung): 7.96 µM
TGI (NCI-H522 lung): > 100 µM
GI50 (SK-MEL-2 melanoma): 27.7 µM
TGI (SK-MEL-2 melanoma): > 100 µM
GI50 (K-562 leukemia): 3.99 µM
TGI (K-562 leukemia): 21 µM
GI50 (MDA-MB-435): 9.18 µM
TGI (MDA-MB-435): 28.3 µM
GI50 (SW-620 colon): 22.2 µM
TGI (SW-620 colon): 57.6 µM
GI50 (CCRF-CEM leukemia): 5.86 µM
TGI (CCRF-CEM leukemia): > 100 µM
GI50 (TK-10 renal): 10.3 µM
TGI (TK-10 renal): 29.4 µM
GI50 (SF-539 CNS): 23 µM
TGI (SF-539 CNS): 41.4 µM
GI50 (MCF7 breast): 4.04 µM
TGI (MCF7 breast): 24.3 µM
GI50 (CAKI-1 renal): 4.09 µM
TGI (CAKI-1 renal): 14.5 µM
GI50 (SR leukemia): 4.91 µM
TGI (SR leukemia): > 100 µM
GI50 (EKVX NSCLC): 16.2 µM
TGI (EKVX NSCLC): 35.5 µM
GI50 (UACC-257 melanoma): 3.22 µM
TGI (UACC-257 melanoma): 13.9 µM
GI50 (HCT-15 colon): 1.51 µM
TGI (HCT-15 colon): 8.78 µM
GI50 (SF-295 CNS): 6.76 µM
TGI (SF-295 CNS): 65.7 µM
GI50 (RPMI-8226 leukemia): 2.38 µM
TGI (RPMI-8226 leukemia): 5.57 µM
GI50 (A549 NSCLC): 4.28 µM
TGI (A549 NSCLC): > 100 µM
GI50 (OVCAR-3 ovarian): 4.22 µM
TGI (OVCAR-3 ovarian): 12.5 µM
GI50 (UACC-62 melanoma): 2.58 µM
TGI (UACC-62 melanoma): 9.1 µM
GI50 (IGROV1 ovarian): 23.6 µM
TGI (IGROV1 ovarian): > 100 µM
GI50 (OVCAR-5 ovarian): 14.3 µM
TGI (OVCAR-5 ovarian): 34.4 µM
GI50 (OVCAR-8 ovarian): 6.14 µM
TGI (OVCAR-8 ovarian): > 100 µM
GI50 (NCI-H460 lung): 5.05 µM
TGI (NCI-H460 lung): 25.8 µM
GI50 (HS 578T breast): 29.9 µM
TGI (HS 578T breast): 67.3 µM
GI50 (MDA-MB-231 breast): 1.56 µM
TGI (MDA-MB-231 breast): 9.63 µM
GI50 (BT-549 breast): 23.8 µM
TGI (BT-549 breast): 53.5 µM
GI50 (DU-145 prostate): 20.4 µM
TGI (DU-145 prostate): 39 µM
GI50 (HOP-92 NSCLC): 11.7 µM
TGI (HOP-92 NSCLC): 28.4 µM
GI50 (SN12C renal): 2.68 µM
TGI (SN12C renal): 8.65 µM
GI50 (KM12 colon): 5.32 µM
TGI (KM12 colon): 23 µM
